Like-named read-outs stand apart in the source and are kept apart here. Where only a bound is given, the exact number is not on record here.

This note sets out measurements from patent EP4389827A1, “AMINOGLYCOSIDE-LINKED PHOTOSENSITIZERS” (Centre National de la Recherche Scientifique, priority 2022, dated 2024).

Experiment [1] relates to A. baumannii DSM30011. As to the kind of experiment: Minimal inhibitory concentration (EUCAST), with or without 660 nm irradiation. The experiment is classed as cell-based, Acinetobacter baumannii. The note with it: Acinetobacter baumannii, DSM30011, light or radiation study, 18 h. On the procedure: (§1) Acinetobacter baumannii DSM30011, Bacillus subtilis 168, Pseudomonas aeruginosa PA14, P. aeruginosa PAO1, Staphylococcus aureus Mu50, S. aureus Newman and S. aureus USA300 were all grown in MHB-CA at 37°C with an agitation of 180 rpm. Candida albicans SC5314 was grown in yeast extract peptone dextrose broth at 35°C with an agitation of 180 rpm.
(§2) Minimal inhibitory concentrations (MICs) for selected bacteria were investigated according to the EUCAST guidelines. Serial dilutions of the compounds, photosensitizers and aminoglycosides were made in MHB-CA in 384-well plates. Stationary-phase cells were diluted in MHB-CA to have a final concentration of 5.5 × 10^5 CFU/mL. Samples were incubated in the dark for 20 minutes at 37°C and either irradiated at 660 nm for 30 minutes with a LED device or kept in the dark. Irradiated samples received a total of 168 mJ/mm^2. Plates were then incubated at 37°C for 18 hours and MICs were evaluated visually. Triplicates were done and the synergy, or fractional inhibitory concentration (FIC), was calculated according to Doern et al., 2014: FIC = (MIC of AB)/(MIC of A) + (MIC of AB)/(MIC of B) [formula]

Experiment [2] has as its system B. subtilis 168. Described as above. The format is cell-based, Bacillus subtilis. The settings on record: Bacillus subtilis, 168, light or radiation study, 18 h. The method, then:
as §1, §2

Experiment [3] relates to C. albicans SC5314. As to the kind of experiment: Minimal inhibitory concentration, with or without 660 nm irradiation. The experiment is classed as cell-based. The note with it: Candida albicans, SC5314, light or radiation study, 18 h. On the procedure:
as §1, §2

In experiment [4] the test system is E. coli KanR. The experiment can be described thus: Minimal inhibitory concentration (EUCAST), with or without 660 nm irradiation. The experiment is classed as cell-based. The settings on record: Escherichia coli, light or radiation study, 18 h. On the procedure: as §2
The subject of experiment [5] is E. coli pET-29. The description is as above. The note with it: Escherichia coli, PET29, light or radiation study, 18 h; aminoglycoside alone, irradiation state not given. The experiment is classed as cell-based. The method, then:
as §2

For experiment [6], the system named is K. pneumoniae LM21. Described as above. The format is cell-based. The note with it: Klebsiella pneumoniae, LM21, light or radiation study, 18 h. The method, then:
as §2

For experiment [7], the system named is P. aeruginosa PA14. The experiment is described as above. The experiment is classed as cell-based, Pseudomonas aeruginosa. The note with it: Pseudomonas aeruginosa, PA14, light or radiation study, 18 h. On the procedure:
as §1, §2

Experiment [8] has as its system P. aeruginosa PAO1. The experiment is described as above. The experiment is classed as cell-based, Pseudomonas aeruginosa. The note with it: Pseudomonas aeruginosa, PAO1, light or radiation study, 18 h. On the procedure:
as §1, §2

Experiment [9] deals with S. aureus Mu50. The experiment is described as above. The format is cell-based. The settings on record: Staphylococcus aureus, MU50, light or radiation study, 18 h. The method, then:
as §1, §2

Experiment [10] deals with S. aureus USA300. The experiment is described as above. The experiment is classed as cell-based. The note with it: Staphylococcus aureus, USA300, light or radiation study, 18 h, aminoglycoside alone, irradiation state not given. On the procedure: as §1, §2
The test system of experiment [11] is S. aureus Newman. Described as above. The format is cell-based, Staphylococcus aureus. The settings on record: Staphylococcus aureus, NEWMAN, light or radiation study, 18 h. The method, then:
as §1, §2

Experiment [12] deals with S. aureus Mu50. As to the kind of experiment: Antibacterial photodynamic therapy on planktonic cells (CFU count). The format is cell-based, Staphylococcus aureus. The settings on record: non-irradiated samples (Figure 3b). On the procedure: as §1
(§3) Cells were brought to stationary phase by incubating them in MHB-CA for at least 18 hours at 37°C with 180 rpm and diluted to an optical density of 1.0 just before the experiment. Cells were incubated for 20 minutes with either the compounds, photosensitizers alone, or aminoglycosides alone. Unless stated otherwise, a concentration of 10 µM was used for all experiments and samples were irradiated for 30 minutes at 660 nm with the Solis-660C lamp from ThorLabs, receiving a total of 5 J/mm^2. After illumination, cells were washed with phosphate-buffered saline (PBS) 1X, serially diluted and plated on Mueller-Hinton agar. The next day, colony forming units (CFUs) were counted.

In experiment [13] the test system is S. aureus Newman. The description is as above. The settings on record: non-irradiated samples (Figure 3d). The experiment is classed as cell-based, Staphylococcus aureus. On the procedure:
as §1, §3

Experiment [14] deals with A. baumannii DSM30011. As to the kind of experiment: Antibacterial photodynamic therapy on biofilm cells. The format is cell-based, Acinetobacter baumannii. The note with it: - irradiation. An excerpt:
(§4) Compounds Neo-Ce6 and Tobra-Ce6 caused strong drop in survival for biofilms of A. baumannii […], P. aeruginosa species and S. aureus Mu50. […] Tobra-Ce6 had its strongest effect on A. baumannii DSM30011 with more than 4 log10 CFU/mL drop in survival and a drop of 1.7 log10 CFU/mL in P. aeruginosa PA14. Table 2: aPDT results for biofilm cells expressed in drop in the log10 CFU/mL compared to controls.

Experiment [15] concerns P. aeruginosa PA14. The description is as above. The experiment is classed as cell-based, Pseudomonas aeruginosa. The note with it: - irradiation.
Description: as §4

Experiment [16] deals with P. aeruginosa PAO1. Described as above. The experiment is classed as cell-based, Pseudomonas aeruginosa. The note with it: - irradiation.
Description: as §4

The subject of experiment [17] is S. aureus Mu50. Described as above. The experiment is classed as cell-based, Staphylococcus aureus. The note with it: - irradiation.
Description: as §4

The subject of experiment [18] is S. aureus Newman. The experiment is described as above. The format is cell-based, Staphylococcus aureus. The note with it: - irradiation.
Description: as §4

In experiment [19] the test system is S. aureus USA300. The experiment is described as above. The format is cell-based, Staphylococcus aureus. The note with it: - irradiation.
Description: as §4

Experiment [20] concerns S. aureus USA300 persister cells. As to the kind of experiment: Antibacterial photodynamic therapy on persister cells. The note with it: persister cells (6 hours, 2 mM neomycin); aPDT at 10 µM, 5 J/mm^2 (Figure 6a). The format is cell-based, Staphylococcus aureus. On the procedure:
Persister plateau and AG concentration varied from one species to another. In S. aureus USA300, a stable plateau was obtained following 6 hours of incubation with 2 mM of neomycin. […] This control is crucial to make sure that a persister state has been achieved. […] As there are no significant differences between irradiated and non-irradiated samples, however, the production of singlet oxygen may not be the factor leading to cell death. In S. aureus Newman, cells were treated for 24 hours with 1 mM of neomycin. […] Although this synergy does exist, like in S. aureus USA300, there is no significant difference in survival for irradiated and non-irradiated samples, except for Ce6.

In experiment [21] the test system is P. aeruginosa PAO1. As to the kind of experiment: Antibacterial photodynamic therapy on planktonic cells (CFU count). The format is cell-based. The note with it: Pseudomonas aeruginosa, PAO1, light or radiation study, aminoglycoside alone, Figure 5d (without irradiation), read-out: drop of survival. The method, then: as §1, §3
The mark [22] stands for this setting: aminoglycoside alone, irradiation state not given, read-out: MIC.

By MIC is commonly meant the lowest concentration that inhibits growth of the organism. On to `NC[C@@H]1O[C@H](O[C@H]2[C@@H](O)[C@H](O[C@@H]3[C@@H](O)[C@H](N)C[C@H](N)[C@H]3O[C@H]3O[C@H](CN)[C@@H](O)[C@H](O)[C@H]3N)O[C@@H]2CO)[C@H](N)[C@@H](O)[C@@H]1O` [Neomycin, neomycin], for which the minimum inhibitory concentration (MIC) was 8 µM in [1]; 0.4 µM in experiment [2]; above 512 µM in experiment [3]; above 512 µM in [4]; 128 to 256 µM in [5]; 2 µM in [6]. For the same compound, the MIC in experiment [7] was 4 µM; in [8] it was 16 µM; in [9], above 512 µM; in [10], 4 µM; in experiment [11], 8 µM. Further, the “drop in CFUs (in words)” value in experiment [12] and in [13] was “does not lead to significantly less survival” throughout. The “drop in the log10 CFU/mL compared to controls” value in experiment [14] was 1.33 log10 CFU/mL; in experiment [15] it was 0.01 log10 CFU/mL; in experiment [16], 0.28 log10 CFU/mL; in [17], 0.18 log10 CFU/mL; in experiment [18] it was -0.07 log10 CFU/mL; in [19] it was 0.16 log10 CFU/mL. For the same compound, the “persister cell survival (in words)” value in [20] is “no significant drop in survival”.

`NC[C@H]1O[C@H](O[C@H]2[C@H](O)[C@@H](O[C@H]3O[C@H](CO)[C@@H](O)[C@H](N)[C@H]3O)[C@H](N)C[C@@H]2N)[C@H](N)C[C@@H]1O` [Tobramycin, tobramycin]: the minimal inhibitory concentration (MIC) in experiment [1] (setting [22]) was 4 to 8 µM; in [7] (setting [22]), 1 to 2 µM; in [8] (setting [22]), 0.5 to 1 µM; in experiment [9] (setting [22]) it was above 512 µM; in experiment [10], 4 µM; in [11] (setting [22]), 4 µM. The log reduction at 10 µM in [21] was around 2.3. The “drop in the log10 CFU/mL compared to controls” value in [14] is reported as 0.93 log10 CFU/mL; in [15] it was 0.79 log10 CFU/mL; in experiment [16], 0.39 log10 CFU/mL; in [17], -0.02 log10 CFU/mL; in experiment [18] it was 0.25 log10 CFU/mL; in experiment [19], 0.26 log10 CFU/mL.
